Read-outs that look alike come from different tables or passages of the source.
Assays:
[1] = Physical stability of compositions; assay type: physicochemical
Excerpt: (§1) A summary of stability and sanitizing efficacy for these compositions including an amine antimicrobial agent is shown below in Table 13. This table also includes, for comparison, results for compositions including other types of antimicrobial agents.

lipase = assay: Enzyme stability testing (Lipolase activity); assay type: biochemical; details: Table 13; composition including the named antimicrobial agent
Method: The pH of Formula 3 was lowered to 7. Formulas 4 and 5 maintained enzyme stability at 40 C for at least 30 days. Formula 3 maintained enzyme stability at 40 C for 30 days, but dropped thereafter. Enzyme stability testing was performed according to the manufacturers specifications (e.g., Novozymes LUNA #2000-10340-01 “Manual Procedure for Determination of Lipolase Activity in Enzyme Preparations and Detergents”. )

bacteria = assay: Non-food contact sanitizing test, summary (organism not named); assay type: cell-based; details: Table 13; composition including the named antimicrobial agent
Method: The composition produced greater than 3 log10 reduction of bacteria within a 5 minute contact time.
A summary of sanitizing efficacy in a non-food contact sanitizing test is shown below in Table 11 below. All testing was performed in 500 ppm synthetic hard water with a five minute exposure time. Microbiological testing was performed according to known methods, certain of which included EPA efficacy data requirements from DIS/TSS-10.
as §1

[2] = Table 13, composition including the named antimicrobial agent

Row | Compound | Physical Stability [1, 2] | Enzyme Stability (lipase) | Antimicrobial Activity (bacteria) | Physical Stability [1]
1 | CCCCCCCCCCCCN(CCCN)CCCN [Lonzabac 12.30, bis (3-aminopropyl)dodecylamine] | yes | yes | 4.5 log reduction | 
2 | Oc1cccc(O)c1 [Resorcinol, 1,3-benzenediol, reference compound] | yes |  |  | 
3 | polyhexymethylene biguanide [Vantocil] | yes |  |  | 
4 | isotridecyloxypropyl-1,3-diaminopropane [DA-17] |  | yes | 4 log reduction | yes
5 | O=C([O-])CNCO.[Na+] [Integra 44, Hydroxymethylglycinate] | yes |  | none | 
6 | linear alkyloxypropyl amine [PA-19] | yes | yes | 4 log reduction | 
7 | CCCCCCCCCC[N+](C)(C)CCCCCCCCCC.[Cl-] [Bardac 2250, didecyl dimethyl ammonium chloride] |  |  | 3 log reduction | 
8 | cocodiaminopropane [Duomeen CD] | yes | yes | 2.5 log reduction | 
9 | Cc1cc(O)cc(C)c1Cl [PCMX, Chloroxylenol, reference compound] | yes |  |  | 
10 | Dodecyl/tetradecyloxypropyl-1,3-diaminopropane [DA 1618] | yes | yes | 4.8 log reduction | 
